Values after ≈ are worked out from the molar mass of the structure shown.
Columns and labels:
[1] = tested on: U87MG human glioblastoma cells; assay: inhibition of U87MG human glioblastoma cell growth (3H-thymidine incorporation); type: cell-based; details: U-87 MG, 48 hours incubation
Protocol: The antitumor activity of the compounds of this invention were confirmed in a standard pharmacological test procedure which measures the inhibition of U87MG human glioblastoma cell growth (as a function of ^3H-thymidine incorporation), using CCl-779-PEG 5000 ester (Compound III) and CCl-779-(PEG 5000)2 ester (Compound IV) as representative compounds of this invention. The following briefly describes the procedure used and results obtained. U87MG human glioblastoma cells (ATCC #HTB-14; available from the American Type Culture Collection; 10801 University Boulevard; Manassas, Va. 20110;), were grown in the following media.
Growth Medium: BRL Minimum Essential Medium with Earle Salts (500 mL)
+5 mL BRL MEM Non-Essential Amino Acids (10 mM)
+5 mL BRL Na Pyruvate Solution (100 mM)
+5 mL BRL L-Glutamine 200 mM
+50 mL BRL Fetal Bovine Serum (Qualified)
1. Cells were trypsinized and plated at a concentration of 10^4 cells/well in a final volume of 200 μL growth medium in 96-well flat bottom plates and allowed to adhere for 24 hours at 37° C.
2. The media was removed by aspiration with care to not disturb the cell monolayer. 200 μL of fresh growth media was added per well, allowing enough wells for samples to be run in triplicate. Test compounds were added in 10 μL phosphate buffer solution (PBS) and incubated for another 48 hours at 37° C.
3. […]
4. […] Mats were counted in a Wallac Betaplate counter.

water solubility = type: physicochemical
Excerpt: Such doses may be administered in any manner useful in directing the active compounds herein to the recipient's bloodstream, including orally, via implants, parenterally (including intravenous, intraperitoneal and subcutaneous injections), rectally, intranasally, vaginally, and transdermally. […] This advantage is particularly important for oral and parenteral administration.

IC50 [1]: 0.6 ng/mL (≈ 0.582 nM)
solubility (water solubility): < 1.1 µg/mL
Compound: CO[C@H]1C[C@@H]2CC[C@@H](C)[C@@](O)(O2)C(=O)C(=O)N2CCCC[C@H]2C(=O)O[C@H]([C@H](C)C[C@@H]2CC[C@@H](OC(=O)C(C)(CO)CO)[C@H](OC)C2)CC(=O)[C@H](C)/C=C(\C)[C@@H](O)[C@@H](OC)C(=O)[C@H](C)C[C@H](C)/C=C/C=C/C=C/1C [CCI-779, rapamycin 42-ester with 3-hydroxy-2-(hydroxymethyl)-2-methylpropionic acid]

Source: patent US6432973B1, “Water soluble rapamycin esters” (Wyeth, priority 2000, dated 2002)
